The target in this series is T1, Solute carrier organic anion transporter family member 1A4 (Mus musculus, UniProt Q9EP96).
T1 sequence (Q9EP96 whole entry): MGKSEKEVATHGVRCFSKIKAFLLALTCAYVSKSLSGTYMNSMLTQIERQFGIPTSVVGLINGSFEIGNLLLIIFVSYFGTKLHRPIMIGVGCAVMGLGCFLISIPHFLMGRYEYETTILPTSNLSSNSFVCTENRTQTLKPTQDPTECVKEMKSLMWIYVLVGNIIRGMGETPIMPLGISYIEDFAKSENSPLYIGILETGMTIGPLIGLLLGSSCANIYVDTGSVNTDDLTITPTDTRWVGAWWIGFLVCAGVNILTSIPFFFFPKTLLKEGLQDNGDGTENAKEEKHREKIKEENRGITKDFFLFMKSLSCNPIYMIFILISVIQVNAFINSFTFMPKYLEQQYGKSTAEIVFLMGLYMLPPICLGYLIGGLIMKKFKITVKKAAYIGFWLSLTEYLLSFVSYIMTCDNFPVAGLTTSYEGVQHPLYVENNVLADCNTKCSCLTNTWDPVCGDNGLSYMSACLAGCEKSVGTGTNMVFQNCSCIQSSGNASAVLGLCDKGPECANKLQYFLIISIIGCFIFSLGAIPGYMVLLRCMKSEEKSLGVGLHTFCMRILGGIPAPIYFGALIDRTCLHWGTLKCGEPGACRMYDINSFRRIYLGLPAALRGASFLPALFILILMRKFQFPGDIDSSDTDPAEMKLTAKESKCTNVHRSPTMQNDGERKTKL
Put plainly: TP_TRANSPORTER: Northern blot in vivo, liver of PXR+/+ mouse. The class given is functional, organism-based.

Molecules are shown by their SMILES.

As to `C[C@H](CCC(=O)O)[C@H]1CC[C@H]2[C@@H]3CC[C@@H]4C[C@H](O)CC[C@]4(C)[C@H]3CC[C@]12C` [LITHOCHOLIC ACID], the Activity entry is “inducer [+]”. On to `CC(=O)[C@H]1[C@H](C#N)C[C@H]2[C@@H]3CC=C4C[C@@H](O)CC[C@]4(C)[C@H]3CC[C@@]21C` [PREGNENOLONE CARBONITRILE], for which the Activity entry is “inducer [+]”.
